Experimental data from ChEMBL document CHEMBL1141432, “Mono- and Di-sesquiterpenoids from Chloranthus spicatus” (2007).
Values after ≈ are worked out from the molar mass of the structure shown.

Legend:
Candida albicans = test: Antifungal activity against Candida albicans by NCCLS M27-A method; assay type: functional
Candida parapsilosis = test: Antifungal activity against Candida parapsilosis by NCCLS M27-A method; assay type: functional; settings: Lodderomyces parapsilosis

Row | MIC (Candida albicans) [µM] | MIC (Candida parapsilosis) [µM] | Compound
1 | > 0.157 | > 0.157 | CC1=C2C3=C4[C@@](C)(C(=O)[C@@]2(O)OC1=O)[C@@H]1C[C@@H]1[C@@]4(O)C[C@@H]1[C@]32OC(=O)C3=C2C[C@H]2[C@](O)(COC(=O)/C=C(\C)COC(=O)CCC(=O)OC3)[C@H]3C[C@@H]3[C@]12C [CHLORAHOLOLIDE B]
2 | > 0.157 | > 0.157 | C/C=C(\C)C(=O)OC[C@]1(O)[C@H]2C[C@H]2[C@]2(C)[C@@H]3C[C@@]4(O)C5=C(C6=C(C)C(=O)O[C@]6(O)[C@H](O)[C@@]5(C)[C@@H]5C[C@@H]54)[C@@]34OC(=O)C(CO)=C4C[C@@H]12 [CHLORAMULTILIDE D]
3 | > 0.157 | > 0.157 | CC1=C2C3=C4[C@](C)([C@@H]5C[C@@H]5[C@@]4(O)C[C@@H]4[C@]35OC(=O)C3=C5C[C@H]5[C@](O)(COC(=O)/C(C)=C/COC(=O)CCC(=O)OC3)[C@H]3C[C@H]3[C@]45C)[C@@H](O)[C@@]2(O)OC1=O [CHLORAMULTILIDE C]
4 | 0.068 (≈ 0.05 µg/mL) | 0.068 (≈ 0.05 µg/mL) | CC1=C2C3=C4[C@](C)([C@@H]5C[C@@H]5[C@@]4(O)C[C@@H]4[C@]35OC(=O)C3=C5C[C@H]5[C@](O)(COC(=O)/C=C(\C)COC(=O)CCC(=O)OC3)[C@H]3C[C@@H]3[C@]45C)[C@@H](O)[C@@]2(O)OC1=O [CHLORAMULTILIDE B]
